Test results from US20240302356A1, “METHOD FOR DETERMINING A TOXICITY AND/OR GROWTH PROMOTION EFFECT OF A TREATMENT OR COMPOUND” (priority 2021, published 2024).
Like-named read-outs stand apart in the source and are kept apart here.

Tests used:
Capsicum annuum = Capsicum annuum hypocotyls with roots, flow cytometry (Experiment A1.3); assay type: in vivo
Text: (§1) FIGS. 14A and B illustrates from left to right: Average number of nuclei per microliter of carrier fluid; Endoreplication index (EI), for defence (EIDEFENCE) and for growth (EIGROWTH) of the analysed plant samples from different plant systems exposed to the various treatments mentioned in the table. Data are expressed relative to the first listed condition of each experiment (reference). […] In particular, the toxic effect of Cd in T. nicotiana (see Experiment A1.1) was confirmed by the present invention since EIGROWTH decreased and EIDEFENCE increased in the plant seedlings. Mitigation of this Cd-induced growth inhibition by biochar was confirmed (see Experiment A1.2). […] To optimize the growing medium for A. thaliana, different dilutions of MS medium were tested (see Experiment A1.4). […] The toxic effects of ACC (see Experiment A1.8), IAA (see Experiment A1.9) and the osmoticum PEG (simulating drought stress, see Experiment A1.10) on A. thaliana were confirmed by the present invention since EIGROWTH decreased and EIDEFENCE increased.

[1] = system: D. caryophyllus seedlings; test: D. caryophyllus seedlings in 48-well microtiter plate with 1/4 MS medium, flow cytometry; assay type: in vivo, Dianthus caryophyllus; details: 9 days
Procedure: Since results are promising for young seedlings of A. thaliana, it was also investigated whether the invention works in other plant species. To investigate whether the tipping point can also be determined using another plant species, tetraploid D. caryophyllus plants (i.e., basic ploidy level is 4C) were grown in a 48-well microtiter plate with ¼ MS medium and exposed to a Cd concentration range between 0 and 50 μM Cd. FIG. 13 illustrates flow cytometry data of D. caryophyllus seedlings exposed to a Cd range (10-50 μM Cd) and harvested after 9 days. Data are expressed relative to the control condition shown by the horizontal line (1.0). A) Average number of nuclei per microliter of carrier fluid; B) Endoreplication index (EI); C) Relative ploidy level; D) Relative ratios of consecutive ploidy levels; E) EIDEFENCE; and F) EIGROWTH. One-way ANOVA compared to the unexposed condition: * p<0.05.

Tobacco nicotiana = Tobacco nicotiana seedlings, flow cytometry (Experiments A1.1, A1.2); assay type: in vivo; details: plant seedlings, Cd, Experiment A1.1
Text: as §1

A. thaliana leaves = A. thaliana leaves cultivated in a hydroponic system, flow cytometry; assay type: in vivo, Arabidopsis thaliana
Procedure: To investigate whether the tipping point can also be determined using another cultivation system, A. thaliana plants were grown in a hydroponic system and exposed to a Cd concentration range after 11 days. Since results are promising for young seedlings, it was also investigated whether the invention works in plants of different ages. Therefore, individual samples of the first and the third leaf were harvested at different time points.
LEAF 1: FIG. 11 illustrates flow cytometry data of the first A. thaliana leaf exposed to a Cd range (1-10 μM Cd) after 11 days and harvested at different time points (12-21 days). Data are expressed relative to the unexposed condition (0 μM Cd=1.0). A) Endoreplication index (EI); B) Relative ploidy level; C) Relative ratios of consecutive ploidy levels; D) EIDEFENCE; and E) EIGROWTH. One-way ANOVA compared to the unexposed condition: * p<0.05. […] As known from literature, the maximum ploidy level of young leaves is lower than in mature plants. This is confirmed by the different ploidy levels observed, see FIG. 11B: leaf 1 reaches ploidy levels up to 8C after 12 days, 16C after 14 days and the highest ploidy level of 32C was only reached after 18 days. This shift in maximum ploidy level is hypothesized to influence the tipping point. Therefore, at each age, the tipping point is identified. […] This is confirmed by increased 8C/16C ratios, see FIG. 11C.
LEAF 3: FIG. 12 illustrates flow cytometry data of the third A. thaliana leaf exposed to a Cd range (1-10 μM Cd) after 11 days and harvested at different time points (14-21 days). Data are expressed relative to the unexposed condition (0 μM Cd=1.0). A) Endoreplication index (EI); B) Relative ploidy level; C) Relative ratios of consecutive ploidy levels; D) EIDEFENCE; and E) EIGROWTH. One-way ANOVA compared to the unexposed condition: * p<0.05. […] The different ploidy levels observed confirm the lower maximum ploidy level in young leaves, see FIG. 12B: leaf 3 reaches ploidy levels up to 8C after 14 days, 16C after 18 days and 32C after 21 days. At day 14, leaf 3 was focused on normal cell division as evidenced by the elevated 2C ratio.

[2] = toxic treatments, Experiments A1.8-A1.11
[3] = Cd 10-50 μM, 4C as tipping point

NC1(C(=O)O)CC1 [ACC]
EIDEFENCE (Arabidopsis thaliana; [2]): increased
EIGROWTH (Arabidopsis thaliana; [2]): decreased

[Cd] [Cd, cadmium]
toxic effect (Capsicum annuum): could be confirmed
EI ([1]; 50 μM Cd): decrease
nuclei concentration ([1]; 50 μM Cd): decrease
EIDEFENCE [1, 3]: elevated values
EIGROWTH [1, 3]: decreased values
EIDEFENCE (Tobacco nicotiana): increased
EIGROWTH (Tobacco nicotiana): decreased
EIDEFENCE (Arabidopsis thaliana; 30 μM Cd or more, 10 days): significant and dose-dependent increases
number of nuclei per microliter (plant growth) (Arabidopsis thaliana; Cd concentrations from 30 µM or higher, 10 days): significant decrease
EIDEFENCE (Arabidopsis thaliana; in vivo): dose-dependent increase
EIGROWTH (Arabidopsis thaliana; in vivo): less pronounced dose-dependent decrease
growth (concentration of nuclei) (Arabidopsis thaliana; in vivo): dose-dependent growth retardation
endoreplication index EI (Arabidopsis thaliana; seedlings in MS medium, Cd concentration range 0-50 μM, FIG. 10B): dose-dependent induction in endoreplication
EIDEFENCE (Arabidopsis thaliana; [2]): increased
EIGROWTH (Arabidopsis thaliana; [2]): decreased
EI (A. thaliana leaves; leaf 1, 1-10 μM Cd for 3 days or more (14-days-old plants or older)): dose-dependent decrease
EIDEFENCE (A. thaliana leaves; leaf 1, 1-10 μM Cd, FIG. 11D): elevated values
EIGROWTH (A. thaliana leaves; leaf 1, 1-10 μM Cd, FIG. 11E): decreased values
EI or ploidy levels (A. thaliana leaves; leaf 1, one day of exposure to Cd (12-days-old plants)): did not show significant changes
EI (A. thaliana leaves; leaf 3, 1-10 μM Cd, FIG. 12A): dose-dependent decrease
EIDEFENCE (A. thaliana leaves; leaf 3, 1-10 μM Cd, FIG. 12D): elevated values
EIGROWTH (A. thaliana leaves; leaf 3, 1-10 μM Cd, FIG. 12E): decreased values

C=C1C[C@]23C[C@@]1(O)CC[C@H]2[C@@]12C=C[C@H](O)[C@@](C)(C(=O)O1)[C@H]2[C@@H]3C(=O)O [GA3]
growth-stimulating effect by EI indices (Arabidopsis thaliana; Experiments A1.5-A1.7): EIGROWTH increased and/or EIDEFENCE decreased
concentration at which a shift towards toxicity was detected (both EI indices showing an opposite trend) (Arabidopsis thaliana; increasing concentrations, Experiment A1.7): 3 mg I-1

O=C(O)Cc1c[nH]c2ccccc12 [IAA]
EIDEFENCE (Arabidopsis thaliana; [2]): increased
EIGROWTH (Arabidopsis thaliana; [2]): decreased
